Records with an inconclusive call do not appear. Calls of active or inactive are those of the source.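 How the source made its calls: active means compounds whose fitted AC50 for signal loss is at most twice the top valid dose tested; inconclusive means flat curve with 30 to 70% inhibition, or poor fit; inactive means the rest.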
target: Leucyl-cystinyl aminopeptidase (Mus musculus) (UniProt Q8C129); assay: IRAP inhibitors, dose response, selectivity assay for ERAP1 modulator project, biochemical, Leu-AMC fluorescence, cherry-picked samples, set 2 (AID 743340); details: purified IRAP, Leu-AMC cleavage fluorescence, 1 h
Sequence (Q8C129 whole entry, looked up): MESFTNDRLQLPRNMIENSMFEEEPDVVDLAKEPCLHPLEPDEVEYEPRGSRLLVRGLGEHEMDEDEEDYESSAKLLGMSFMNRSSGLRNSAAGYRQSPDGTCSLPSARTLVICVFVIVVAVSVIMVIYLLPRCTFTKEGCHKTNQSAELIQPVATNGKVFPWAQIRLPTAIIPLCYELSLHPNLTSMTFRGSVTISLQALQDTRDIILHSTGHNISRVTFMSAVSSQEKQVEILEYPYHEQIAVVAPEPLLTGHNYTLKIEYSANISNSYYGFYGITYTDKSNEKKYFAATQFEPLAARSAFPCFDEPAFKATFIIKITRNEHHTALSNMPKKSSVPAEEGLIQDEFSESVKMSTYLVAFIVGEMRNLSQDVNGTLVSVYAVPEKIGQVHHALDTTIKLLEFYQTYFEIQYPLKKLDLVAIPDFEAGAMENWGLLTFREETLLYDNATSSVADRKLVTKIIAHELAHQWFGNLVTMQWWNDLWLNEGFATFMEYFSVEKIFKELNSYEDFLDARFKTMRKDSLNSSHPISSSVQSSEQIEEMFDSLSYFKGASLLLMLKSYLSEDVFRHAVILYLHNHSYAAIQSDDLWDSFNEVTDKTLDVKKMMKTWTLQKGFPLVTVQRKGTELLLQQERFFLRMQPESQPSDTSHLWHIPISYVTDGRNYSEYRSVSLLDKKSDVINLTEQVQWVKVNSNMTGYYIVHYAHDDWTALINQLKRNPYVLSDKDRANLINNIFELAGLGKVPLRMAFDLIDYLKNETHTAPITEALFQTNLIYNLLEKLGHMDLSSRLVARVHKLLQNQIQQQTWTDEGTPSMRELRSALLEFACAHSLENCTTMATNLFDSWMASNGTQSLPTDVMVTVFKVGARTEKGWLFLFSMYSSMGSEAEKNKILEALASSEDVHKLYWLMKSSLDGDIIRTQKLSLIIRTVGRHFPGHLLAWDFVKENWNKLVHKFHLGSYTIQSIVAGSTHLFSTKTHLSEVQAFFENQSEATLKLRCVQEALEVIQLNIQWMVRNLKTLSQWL

Compound	AC50
CCCN(C)C[C@@H]1OCCCC[C@@H](C)Oc2ccc(NS(=O)(=O)c3c(C)noc3C)cc2C(=O)N([C@H](C)CO)C[C@@H]1C	> 20 µM (inactive)
CCCN(C)C[C@@H]1OCCCC[C@@H](C)Oc2ccc(NS(=O)(=O)c3ccc(C)cc3)cc2C(=O)N([C@H](C)CO)C[C@@H]1C	> 20 µM (inactive)
O=C(O)c1ccccc1NS(=O)(=O)c1cccc(-n2sc3ccccc3c2=O)c1	> 22 µM (inactive)

same assay, conditions: purified IRAP, Leu-AMC cleavage fluorescence, 1 h; at 5 µM (top of the series)

Compound	activity change, negative = inhibition
C[C@@H]1CCCCO[C@@H](CN(C)C(=O)CCC(F)(F)F)[C@@H](C)CN([C@@H](C)CO)C(=O)c2cc(NS(=O)(=O)c3ccc(Cl)cc3)ccc2O1	inactive

same assay, conditions: purified IRAP, Leu-AMC cleavage fluorescence, 1 h; at 5.6 µM (top of the series)

Compound	activity change, negative = inhibition
C[C@@H]1CCCCO[C@@H](CN(C)Cc2ccccc2)[C@@H](C)CN([C@H](C)CO)C(=O)c2cc(NS(=O)(=O)c3cccs3)ccc2O1	inactive
C[C@@H]1CCCCO[C@@H](CN(C)Cc2ccc3c(c2)OCO3)[C@@H](C)CN([C@@H](C)CO)C(=O)c2cc(NS(=O)(=O)c3ccccc3)ccc2O1	inactive

same assay, conditions: purified IRAP, Leu-AMC cleavage fluorescence, 1 h; at 10 µM (top of the series)

Compound	activity change, negative = inhibition
Cc1noc(C)c1S(=O)(=O)N(C)C[C@@H]1OCCCC[C@@H](C)Oc2ccc(NS(=O)(=O)c3cccs3)cc2C(=O)N([C@@H](C)CO)C[C@@H]1C	inactive
C[C@@H]1CCCCO[C@@H](CN(C)C)[C@H](C)CN([C@@H](C)CO)C(=O)c2cc(NC(=O)Nc3ccc(C(F)(F)F)cc3)ccc2O1	inactive

same assay, conditions: purified IRAP, Leu-AMC cleavage fluorescence, 1 h; at 11 µM (top of the series)

Compound	activity change, negative = inhibition
COc1ccc(CN(C)C[C@@H]2OCCCC[C@@H](C)Oc3ccc(NS(=O)(=O)c4cccs4)cc3C(=O)N([C@@H](C)CO)C[C@H]2C)cc1	inactive
CCCN(C)C[C@@H]1OCCCC[C@@H](C)Oc2ccc(NS(=O)(=O)c3cccs3)cc2C(=O)N([C@H](C)CO)C[C@@H]1C	inactive
Cc1noc(C)c1S(=O)(=O)Nc1ccc2c(c1)C(=O)N([C@H](C)CO)C[C@@H](C)[C@@H](CN(C)CC1CCCCC1)OCCCC[C@@H](C)O2	inactive
C[C@@H]1CCCCO[C@@H](CN(C)CC2CCCCC2)[C@H](C)CN([C@@H](C)CO)C(=O)c2cc(NC(=O)Nc3ccccc3)ccc2O1	inactive
C[C@@H]1CCCCO[C@@H](CN(C)Cc2ccc3c(c2)OCO3)[C@@H](C)CN([C@H](C)CO)C(=O)c2cc(NS(=O)(=O)c3cccs3)ccc2O1	inactive
C[C@@H]1CCCCO[C@@H](CN(C)C)[C@@H](C)CN([C@@H](C)CO)C(=O)c2cc(NS(=O)(=O)c3ccc(Cl)cc3)ccc2O1	inactive
COc1ccc(NC(=O)Nc2ccc3c(c2)C(=O)N([C@@H](C)CO)C[C@@H](C)[C@H](CN(C)Cc2ccc(C(=O)O)cc2)OCCCC[C@H](C)O3)cc1	inactive
COc1ccc(NC(=O)Nc2ccc3c(c2)C(=O)N([C@H](C)CO)C[C@@H](C)[C@@H](CN(C)Cc2ccc(C(=O)O)cc2)OCCCC[C@@H](C)O3)cc1	inactive
O=C(C[C@H]1CC[C@H]2[C@@H](COC[C@@H](O)CN2C(=O)Nc2cccc(Cl)c2)O1)N1CCCCC1	inactive
Cc1ccc2nc3c(cc(C(=O)NCc4ccccc4)c(=N)n3CCCn3ccnc3)c(=O)n2c1	inactive
COc1ccc(C(=O)O)cc1S(=O)(=O)Nc1cc(C(F)(F)F)ccc1N1CCCCC1	inactive
COc1ccc(CN(C)C[C@H]2OCCCC[C@@H](C)Oc3ccc(NS(=O)(=O)c4cccs4)cc3C(=O)N([C@@H](C)CO)C[C@H]2C)cc1	inactive
C[C@H]1CN([C@@H](C)CO)C(=O)c2cccc(NC(=O)Nc3ccc(F)cc3)c2O[C@@H]1CN(C)C(=O)Nc1ccc2c(c1)OCO2	inactive
COc1ccc(CN(C)C[C@@H]2OCCCC[C@@H](C)Oc3ccc(NS(=O)(=O)c4cccs4)cc3C(=O)N([C@H](C)CO)C[C@@H]2C)cc1	inactive
O=C(O)c1cccc(NC(=O)c2ccccc2NC(=O)c2cccc([N+](=O)[O-])c2)c1	inactive
C[C@@H]1CCCCO[C@H](CN(C)Cc2ccc(C(=O)O)cc2)[C@H](C)CN([C@@H](C)CO)C(=O)c2cc(NC(=O)Nc3ccc(C(F)(F)F)cc3)ccc2O1	inactive
C[C@H]1CN([C@@H](C)CO)C(=O)c2cccc(NC(=O)Nc3ccc(C(F)(F)F)cc3)c2O[C@@H]1CN(C)C	inactive
CNC[C@H]1OCCCC[C@@H](C)Oc2ccc(NS(=O)(=O)c3ccc(C)cc3)cc2C(=O)N([C@@H](C)CO)C[C@H]1C	inactive
Cc1noc(C)c1NC(=O)N(C)C[C@@H]1Oc2c(NC(=O)Nc3ccccc3)cccc2C(=O)N([C@H](C)CO)C[C@@H]1C	inactive
COc1ccc(NC(=O)Nc2ccc3c(c2)C(=O)N([C@H](C)CO)C[C@@H](C)[C@H](CN(C)Cc2ccc(C(=O)O)cc2)OCCCC[C@@H](C)O3)cc1	inactive
COc1cccc(S(=O)(=O)N(C)C[C@@H]2Oc3ncccc3C(=O)N([C@H](C)CO)C[C@@H]2C)c1	inactive
CCCNC(=O)C[C@@H]1CC[C@@H]2[C@H](COC[C@H](O)CN2C(=O)Nc2cccc(Cl)c2)O1	inactive
Cc1cc(=O)oc2c(CN3CCN(C)CC3)c(O)c(Cl)cc12	inactive
CCC(=O)N(C)C[C@@H]1Oc2ncc(C#Cc3ccncc3)cc2C(=O)N([C@@H](C)CO)C[C@@H]1C	inactive
C[C@@H]1CN([C@H](C)CO)C(=O)c2cccc(NC(=O)Nc3ccccc3)c2O[C@@H]1CN(C)Cc1ccc(C(=O)O)cc1	inactive
CCn1cc(CN2CCCC(C(=O)Nc3ccc(-c4nc5ccccc5[nH]4)cc3)C2)c(C)n1 (stereo not given)	inactive

Compound	activity change, negative = inhibition
COc1ccc(CN(C)C[C@H]2OCCCC[C@@H](C)Oc3ccc(NS(=O)(=O)c4cccs4)cc3C(=O)N([C@H](C)CO)C[C@H]2C)cc1	inactive
O=C(Nc1ccc(C(F)(F)F)cc1)N1[C@@H]2CNC[C@H]1C2c1ccc(-c2ccncc2)cc1 (stereo not given in full)	inactive
O=C(CSc1cn[nH]n1)Nc1cccc(C(=O)O)c1	inactive
O=C(C[C@H]1CC[C@@H]2[C@H](COC[C@@H](O)CN2C(=O)Nc2cccc(Cl)c2)O1)N1CCCCC1	inactive
N#Cc1c(N2CCNCC2)nc(-c2ccco2)c2c1CCCC2	inactive
CC(=O)N1CCN(C(=O)C2(NC(=O)Nc3ccc(C)cc3)CCCCC2)CC1	inactive
Cc1ccc(-c2cc(C(=O)N3CCCC3)c3ccccc3n2)s1	inactive
C[C@@H]1CCCCO[C@H](CN(C)Cc2ccc(C(=O)O)cc2)[C@@H](C)CN([C@H](C)CO)C(=O)c2cc(NC(=O)Nc3ccc(C(F)(F)F)cc3)ccc2O1	inactive
C[C@@H]1CCCCO[C@@H](CN(C)CC2CC2)[C@@H](C)CN([C@H](C)CO)C(=O)c2cc(NS(=O)(=O)c3cccs3)ccc2O1	inactive
C[C@H]1CN([C@@H](C)CO)C(=O)c2cccc(NC(=O)Nc3ccc4c(c3)OCO4)c2O[C@@H]1CN(C)CC1CC1	inactive
CO[C@@H]1CN(C)C(=O)c2ccc(NC(=O)Nc3cccc(Cl)c3)cc2OC[C@@H](C)NC[C@H]1C	inactive
COc1ccc(S(=O)(=O)Nc2ccc3c(c2)C(=O)N([C@@H](C)CO)C[C@H](C)[C@H](CN(C)C)OCCCC[C@@H](C)O3)cc1	inactive
C[C@H](CO)N1C[C@H](C)[C@H](CN(C)CC2CCCCC2)Oc2c(NC(=O)Nc3ccc(C(F)(F)F)cc3)cccc2C1=O	inactive
CCC(=O)N(C)C[C@H]1Oc2ncc(C#Cc3ccncc3)cc2C(=O)N([C@H](C)CO)C[C@H]1C	inactive
C[C@@H]1CCCCO[C@@H](CN(C)C)[C@@H](C)CN([C@@H](C)CO)C(=O)c2cc(NS(=O)(=O)c3ccc(F)cc3)ccc2O1	inactive
CCCN(C)C[C@@H]1OCCCC[C@@H](C)Oc2ccc(NS(=O)(=O)c3ccc(F)cc3)cc2C(=O)N([C@H](C)CO)C[C@@H]1C	inactive
CCCNC(=O)C[C@H]1CC[C@@H]2[C@H](COC[C@H](O)CN2C(=O)Nc2cccc(Cl)c2)O1	inactive
C[C@@H]1CCCCO[C@@H](CN(C)Cc2ccc(C(=O)O)cc2)[C@H](C)CN([C@@H](C)CO)C(=O)c2cc(NS(=O)(=O)c3ccc(Cl)cc3)ccc2O1	inactive
C[C@H](CO)N1C[C@H](C)[C@H](CN(C)CC2CCCCC2)Oc2c(NC(=O)Nc3ccc4c(c3)OCO4)cccc2C1=O	inactive
COc1ccc(CN(C)C[C@H]2OCCCC[C@@H](C)Oc3ccc(NS(=O)(=O)c4cccs4)cc3C(=O)N([C@@H](C)CO)C[C@@H]2C)cc1	inactive
O=C(C[C@@H]1CC[C@@H]2[C@H](COC[C@H](O)CN2C(=O)Nc2cccc(Cl)c2)O1)N1CCCCC1	inactive
Cc1noc(C)c1NC(=O)Nc1ccc2c(c1)C(=O)N([C@H](C)CO)C[C@@H](C)[C@@H](CN(C)Cc1ccc(C(F)(F)F)cc1)OCCCC[C@@H](C)O2	inactive
CCCN(C)C[C@@H]1OCCCC[C@@H](C)Oc2ccc(NS(=O)(=O)c3ccccc3)cc2C(=O)N([C@H](C)CO)C[C@@H]1C	inactive
COC(=O)[C@H]1[C@H](CO)[C@H]2Cn3c(ccc(-c4ccncc4)c3=O)[C@H]2N1Cc1ccccc1F	inactive
Cc1ccc(S(=O)(=O)Nc2ccc3c(c2)C(=O)N([C@@H](C)CO)C[C@H](C)[C@H](CN(C)C)OCCCC[C@@H](C)O3)cc1	inactive
Cc1ccccc1-c1ccc2c(c1)O[C@@H](CN(C)Cc1ccc(C(=O)O)cc1)[C@@H](C)CN([C@@H](C)CO)S2(=O)=O	inactive

Source: PubChem BioAssay AID743340 (Broad Institute, 2014)
